Target: human (hAC) acid ceramidase (Homo sapiens (Human), UniProt Q13510)
Test: fluorescent-based in vitro assay on human acid ceramidase
Type: biochemical
Settings: hAC-enriched lysosomal lysate from HEK293 cells; fluorogenic probe 5 μM; pH 4.5
Source text: To evaluate the potency of the compounds towards acid ceramidase, a fluorescence-based in vitro assay previously described in literature (Bedia C et al., ChemBioChem, 2007, 8, 642-648) was implemented and optimized. This assay is based on a “fluorogenic probe” containing a coumarin group and a sphingoid base moiety (see figure below), which is not fluorescent in itself, but upon enzymatic cleavage by acid ceramidase followed by a chemical transformation liberates the fluorescent molecule umbelliferone (7-hydroxychromen-2-one). By quantifying the generation of umbelliferone using a fluorescence plate-reader, the level of enzymatic activity can be measured, whereby IC50 values of compounds that inhibit this activity can be generated.
Lysosomal lysate, enriched with acid ceramidase, was prepared from a cell line stably expressing human acid ceramidase. In the assay, the fluorogenic probe (or substrate) serves as a ceramide-analogue, which is recognized and hydrolyzed at the amide bond by acid ceramidase from the enriched lysate to yield the fatty acid and coumarinic aminodiol. By treating the solution with sodium periodate (NaIO4), the coumarinic aminodiol is subsequently oxidized into an aldehyde intermediate, which undergoes a β-elimination reaction to release the strongly fluorescent umbelliferone.
A lysosomal human acid ceramidase protein preparation was obtained from HEK293 cells stably expressing acid ceramidase suspended in 20 mM Tris HCl (pH 7.5) with 0.32 M sucrose. The cell solution was sonicated and centrifuged at 800×g for 15 min at 4° C. Supernatants were then centrifuged at 12,000×g for 30 min at 4° C. Pellets were re-suspended in PBS pH 7.4 and subjected to two freeze-thaw cycles at −80° C. The suspension was finally centrifuged at 105,000×g for 1 hour at 4° C. and protein concentration was measured in the supernatant with bicinchinonic-acid based protein assay. This human acid ceramidase-enriched preparation allowed us to further optimize the enzymatic assay and to use smaller amounts of lysate (2 μg/well) and substrate (5 μM).
The assay was performed in Optiplate 96-wells black plates, with each reaction well containing a mixture of 25 mM sodium acetate buffer pH 4.5 and a fixed amount of protein (2 μg) in a volume of 85 μL. After 30 mins of pre-incubation with test compounds (diluted 20× from DMSO stock solutions at different concentrations), the fluorogenic probe was added (diluted 20× from EtOH stock solution, final concentration 5 μM). After incubation for 3 hours at 37° C., the reactions were stopped with 50 μL of methanol and 100 μL of a 2.5 mg/mL NalO4 fresh solution in 100 mM Glycine/NaOH pH 10.6. The plate was incubated at 37° C. for 2 hours in the dark and fluorescence intensities were measured at excitation/emission wavelengths of 360/446 nm. Negative control samples consisted of the same incubation mixture in the absence of protein extracts. The IC50 values or percent of inhibition, at the indicated concentration, of selected compounds described in the invention are reported in Table 2.

human (hAC) acid ceramidase, sequence (Q13510 22-142): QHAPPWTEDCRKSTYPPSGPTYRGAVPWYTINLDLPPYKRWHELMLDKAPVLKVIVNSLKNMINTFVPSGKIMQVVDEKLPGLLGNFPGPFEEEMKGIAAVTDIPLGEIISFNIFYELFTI
human (hAC) acid ceramidase, sequence (Q13510 143-395): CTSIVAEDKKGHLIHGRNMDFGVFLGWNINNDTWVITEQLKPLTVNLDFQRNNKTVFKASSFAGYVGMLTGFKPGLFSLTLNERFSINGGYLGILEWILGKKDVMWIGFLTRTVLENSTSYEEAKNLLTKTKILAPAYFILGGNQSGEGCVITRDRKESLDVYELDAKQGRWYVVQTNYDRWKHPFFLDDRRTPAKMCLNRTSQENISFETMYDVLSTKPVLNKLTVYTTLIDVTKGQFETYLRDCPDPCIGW

Structure (SMILES)	IC50 [nM]
O=C(NCCCCCCc1ccccc1)n1c(=O)oc2ccccc21 [Example 58, 2-Oxo-N-(6-phenylhexyl)-1,3-benzoxazole-3-carboxamide]	99 ± 58
O=C(NCCCCc1ccc2ccccc2c1)n1c(=O)oc2ccccc21 [Example 52, N-[4-(2-Naphthyl)butyl]-2-oxo-1,3-benzoxazole-3-carboxamide]	57
O=C(c1ccccc1)c1ccc2c(c1)oc(=O)n2C(=O)NCCCCc1ccccc1 [Example 37, 6-Benzoyl-2-oxo-N-(4-phenylbutyl)-1,3-benzoxazole-3-carboxamide]	29 ± 1
O=C(NCCCCc1ccccc1)n1c(=O)oc2cccc(F)c21 [Example 56, 4-Fluoro-2-oxo-N-(4-phenylbutyl)-1,3-benzoxazole-3-carboxamide]	1 ± 1
O=C(NCCCCc1ccccc1)n1c(=O)oc2cc(C(F)(F)F)ccc21 [Example 14, 2-Oxo-N-(4-phenylbutyl)-6-(trifluoromethyl)-1,3-benzoxazole-3-carboxamide]	20 ± 9
O=C(NCCCCc1cccs1)n1c(=O)oc2ccccc21 [Example 44, 2-Oxo-N-[4-(2-thienyl)butyl]-1,3-benzoxazole-3-carboxamide]	99 ± 58
O=C(NCCCCc1ccccc1)n1c(=O)oc2ccc(Br)cc21 [Example 6, 5-Bromo-2-oxo-N-(4-phenylbutyl)-1,3-benzoxazole-3-carboxamide]	22 ± 11
O=C(NCCCCc1ccccc1)n1c(=O)oc2ccc(-c3ccccc3)cc21 [Example 20, 2-Oxo-5-phenyl-N-(4-phenylbutyl)-1,3-benzoxazole-3-carboxamide]	22
O=C(NCCCCc1ccccc1)n1c(=O)oc2cccc(-c3ccccc3)c21 [Example 26, 2-Oxo-4-phenyl-N-(4-phenylbutyl)-1,3-benzoxazole-3-carboxamide]	0.8 ± 0.1
Cc1ccc(CCCCNC(=O)n2c(=O)oc3ccccc32)cc1 [Example 47, 2-Oxo-N-[4-(p-tolyl)butyl]-1,3-benzoxazole-3-carboxamide]	28
N#Cc1ccc2oc(=O)n(C(=O)NCCCCc3ccccc3)c2c1 [Example 15, 5-Cyano-2-oxo-N-(4-phenylbutyl)-1,3-benzoxazole-3-carboxamide]	11
O=C(NCCCCCc1ccccc1)n1c(=O)oc2ccccc21 [Example 57, 2-Oxo-N-(5-phenylpentyl)-1,3-benzoxazole-3-carboxamide]	54 ± 12
COc1ccc2c(c1)oc(=O)n2C(=O)NCCCCc1ccccc1 [Example 10, 6-Methoxy-2-oxo-N-(4-phenylbutyl)-1,3-benzoxazole-3-carboxamide]	52 ± 9
CCCCCCCCNC(=O)n1c(=O)oc2ccccc21 [Example 42, N-Octyl-2-oxo-1,3-benzoxazole-3-carboxamide]	34 ± 14
CCC[C@H]1CC[C@H](CNC(=O)n2c(=O)oc3ccccc32)CC1 [Example 40, 2-Oxo-N-[(4-propylcyclohexyl)methyl]-1,3-benzoxazole-3-carboxamide]	135 ± 56
COc1ccc(CCCCNC(=O)n2c(=O)oc3ccccc32)cc1 [Example 45, N-[4-(4-Methoxyphenyl)butyl]-2-oxo-1,3-benzoxazole-3-carboxamide]	63 ± 22
O=C(NCCCCc1ccccc1)n1c(=O)oc2cc(Cl)c(Cl)cc21 [Example 16, 5,6-Dichloro-2-oxo-N-(4-phenylbutyl)-1,3-benzoxazole-3-carboxamide]	18 ± 8
O=C(NCCCCc1ccccc1)n1c(=O)oc2cc(F)ccc21 [Example 3, 6-Fluoro-2-oxo-N-(4-phenylbutyl)-1,3-benzoxazole-3-carboxamide]	10 ± 7
O=C(NCCCCc1ccccc1)n1c(=O)oc2c(-c3ccccc3)cccc21 [Example 27, 2-Oxo-7-phenyl-N-(4-phenylbutyl)-1,3-benzoxazole-3-carboxamide]	91 ± 10
Cc1ccc2c(c1)oc(=O)n2C(=O)NCCCCc1ccccc1 [Example 9, 6-Methyl-2-oxo-N-(4-phenylbutyl)-1,3-benzoxazole-3-carboxamide]	66 ± 9
